Laboratory results reported in ChEMBL document CHEMBL1139255, “Structure-activity relationship studies of 5-benzylaminoimidazo[1,2-c]pyrimidine-8-carboxamide derivatives as potent, highly selective ZAP-70 kinase inhibitors” (Bioorg Med Chem, 2009).

Tests used:
[1] = target: Mitogen-activated protein kinase 14 (Homo sapiens, UniProt Q16539); assay: Inhibition of p38 alpha
[2] = target: T1, Tyrosine-protein kinase ZAP-70 (Homo sapiens, UniProt P43403); assay: Inhibition of human ZAP70 (Leu325 to Ala619) expressed in Sf9 cells by coupled spectrophotometric enzyme assay; assay type: cell-based
T1 sequence (P43403 whole entry): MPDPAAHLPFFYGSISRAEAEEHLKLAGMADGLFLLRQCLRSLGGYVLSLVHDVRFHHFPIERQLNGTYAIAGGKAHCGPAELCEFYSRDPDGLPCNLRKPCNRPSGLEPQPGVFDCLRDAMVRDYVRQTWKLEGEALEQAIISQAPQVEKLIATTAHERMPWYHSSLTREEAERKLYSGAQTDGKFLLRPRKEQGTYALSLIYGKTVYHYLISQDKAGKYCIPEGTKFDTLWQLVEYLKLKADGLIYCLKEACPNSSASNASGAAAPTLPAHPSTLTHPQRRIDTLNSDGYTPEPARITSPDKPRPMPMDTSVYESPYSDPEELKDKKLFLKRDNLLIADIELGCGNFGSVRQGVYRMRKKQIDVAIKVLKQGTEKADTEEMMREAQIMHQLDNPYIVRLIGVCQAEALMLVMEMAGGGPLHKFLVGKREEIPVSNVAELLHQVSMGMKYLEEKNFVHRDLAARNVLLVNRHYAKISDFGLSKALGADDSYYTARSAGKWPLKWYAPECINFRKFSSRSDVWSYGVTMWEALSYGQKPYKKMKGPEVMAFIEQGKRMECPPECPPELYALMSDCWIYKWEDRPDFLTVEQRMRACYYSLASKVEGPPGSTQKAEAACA

[3] = target: Tyrosine-protein kinase Lck (Homo sapiens, UniProt P06239); assay: Inhibition of Lck
Tyrosine-protein kinase Lck, sequence (P06239 whole entry): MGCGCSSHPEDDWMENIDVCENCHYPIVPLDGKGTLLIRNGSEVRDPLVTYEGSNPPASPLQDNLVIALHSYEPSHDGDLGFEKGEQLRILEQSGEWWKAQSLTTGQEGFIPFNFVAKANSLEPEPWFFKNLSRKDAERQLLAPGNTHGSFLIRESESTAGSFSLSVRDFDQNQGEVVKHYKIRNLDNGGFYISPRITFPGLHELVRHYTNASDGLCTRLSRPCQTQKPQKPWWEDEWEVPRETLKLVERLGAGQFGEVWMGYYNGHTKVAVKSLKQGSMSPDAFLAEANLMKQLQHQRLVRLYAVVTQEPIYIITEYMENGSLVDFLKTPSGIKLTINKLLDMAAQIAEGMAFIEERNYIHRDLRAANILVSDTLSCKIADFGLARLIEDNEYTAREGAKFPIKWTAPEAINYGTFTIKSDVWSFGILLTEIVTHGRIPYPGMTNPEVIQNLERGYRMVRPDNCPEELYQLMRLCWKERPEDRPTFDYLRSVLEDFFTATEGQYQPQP

[4] = target: T2, Mitogen-activated protein kinase 8 (Homo sapiens, UniProt P45983); assay: Inhibition of JNK1 at 10 uM
T2 sequence (P45983 whole entry): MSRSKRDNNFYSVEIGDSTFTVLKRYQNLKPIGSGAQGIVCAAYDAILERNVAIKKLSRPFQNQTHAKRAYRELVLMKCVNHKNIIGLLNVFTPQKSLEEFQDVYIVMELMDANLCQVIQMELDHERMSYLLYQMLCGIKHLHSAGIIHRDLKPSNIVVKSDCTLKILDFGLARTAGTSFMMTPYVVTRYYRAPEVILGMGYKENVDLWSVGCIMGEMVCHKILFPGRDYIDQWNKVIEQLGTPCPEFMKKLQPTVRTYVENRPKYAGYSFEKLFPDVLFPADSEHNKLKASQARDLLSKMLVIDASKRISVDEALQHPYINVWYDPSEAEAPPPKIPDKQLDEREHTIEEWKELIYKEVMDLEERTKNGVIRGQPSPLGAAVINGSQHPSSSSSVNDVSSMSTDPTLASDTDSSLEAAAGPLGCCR

[5] = target: T3, Epidermal growth factor receptor (Homo sapiens, UniProt P00533); assay: Inhibition of EGFR at 10 uM
T3 sequence (P00533 whole entry): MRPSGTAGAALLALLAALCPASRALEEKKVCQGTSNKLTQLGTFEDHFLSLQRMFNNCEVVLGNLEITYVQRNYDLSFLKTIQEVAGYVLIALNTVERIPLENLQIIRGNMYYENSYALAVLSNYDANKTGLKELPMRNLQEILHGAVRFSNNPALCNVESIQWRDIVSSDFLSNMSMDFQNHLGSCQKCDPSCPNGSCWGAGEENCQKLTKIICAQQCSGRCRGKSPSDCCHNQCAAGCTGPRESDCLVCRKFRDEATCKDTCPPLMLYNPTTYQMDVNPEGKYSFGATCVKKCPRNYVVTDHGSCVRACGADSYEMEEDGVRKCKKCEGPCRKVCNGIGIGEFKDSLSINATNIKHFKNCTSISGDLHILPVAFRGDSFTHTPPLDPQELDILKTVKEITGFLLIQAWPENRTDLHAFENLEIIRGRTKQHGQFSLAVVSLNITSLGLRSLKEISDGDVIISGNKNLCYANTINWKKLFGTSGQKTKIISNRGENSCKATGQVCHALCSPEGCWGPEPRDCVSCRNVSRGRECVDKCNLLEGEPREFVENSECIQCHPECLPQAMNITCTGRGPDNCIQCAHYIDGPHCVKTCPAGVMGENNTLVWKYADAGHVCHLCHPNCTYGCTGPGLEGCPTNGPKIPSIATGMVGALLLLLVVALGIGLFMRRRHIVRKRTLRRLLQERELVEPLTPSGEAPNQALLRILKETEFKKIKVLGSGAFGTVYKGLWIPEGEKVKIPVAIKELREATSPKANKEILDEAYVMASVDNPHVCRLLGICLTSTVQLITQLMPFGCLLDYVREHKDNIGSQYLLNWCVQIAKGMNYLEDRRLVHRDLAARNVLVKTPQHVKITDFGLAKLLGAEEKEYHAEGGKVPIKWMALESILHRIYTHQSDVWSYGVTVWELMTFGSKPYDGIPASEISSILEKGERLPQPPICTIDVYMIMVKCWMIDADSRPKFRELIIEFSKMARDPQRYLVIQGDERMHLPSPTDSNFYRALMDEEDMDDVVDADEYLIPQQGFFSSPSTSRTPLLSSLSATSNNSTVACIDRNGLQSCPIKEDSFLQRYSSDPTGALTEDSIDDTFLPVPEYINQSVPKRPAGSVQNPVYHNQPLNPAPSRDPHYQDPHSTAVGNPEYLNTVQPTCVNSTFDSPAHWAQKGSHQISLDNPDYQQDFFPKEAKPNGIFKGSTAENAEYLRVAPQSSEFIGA

[6] = target: Mitogen-activated protein kinase 3 (Homo sapiens, UniProt P27361); assay: Inhibition of ERK1
Mitogen-activated protein kinase 3, sequence (P27361 whole entry): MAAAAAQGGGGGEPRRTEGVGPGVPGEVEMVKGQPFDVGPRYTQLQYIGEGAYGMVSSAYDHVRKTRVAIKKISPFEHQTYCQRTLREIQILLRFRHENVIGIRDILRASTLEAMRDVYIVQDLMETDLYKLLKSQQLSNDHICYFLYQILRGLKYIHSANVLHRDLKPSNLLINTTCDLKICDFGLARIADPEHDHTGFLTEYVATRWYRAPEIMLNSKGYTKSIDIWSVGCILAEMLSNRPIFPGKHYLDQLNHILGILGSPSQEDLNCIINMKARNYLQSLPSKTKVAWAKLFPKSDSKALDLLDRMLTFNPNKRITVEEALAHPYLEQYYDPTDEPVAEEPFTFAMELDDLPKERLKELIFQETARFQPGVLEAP

[7] = target: Protein kinase C beta type (Homo sapiens, UniProt P05771); assay: Inhibition of PKC beta2
Protein kinase C beta type, sequence (P05771 whole entry): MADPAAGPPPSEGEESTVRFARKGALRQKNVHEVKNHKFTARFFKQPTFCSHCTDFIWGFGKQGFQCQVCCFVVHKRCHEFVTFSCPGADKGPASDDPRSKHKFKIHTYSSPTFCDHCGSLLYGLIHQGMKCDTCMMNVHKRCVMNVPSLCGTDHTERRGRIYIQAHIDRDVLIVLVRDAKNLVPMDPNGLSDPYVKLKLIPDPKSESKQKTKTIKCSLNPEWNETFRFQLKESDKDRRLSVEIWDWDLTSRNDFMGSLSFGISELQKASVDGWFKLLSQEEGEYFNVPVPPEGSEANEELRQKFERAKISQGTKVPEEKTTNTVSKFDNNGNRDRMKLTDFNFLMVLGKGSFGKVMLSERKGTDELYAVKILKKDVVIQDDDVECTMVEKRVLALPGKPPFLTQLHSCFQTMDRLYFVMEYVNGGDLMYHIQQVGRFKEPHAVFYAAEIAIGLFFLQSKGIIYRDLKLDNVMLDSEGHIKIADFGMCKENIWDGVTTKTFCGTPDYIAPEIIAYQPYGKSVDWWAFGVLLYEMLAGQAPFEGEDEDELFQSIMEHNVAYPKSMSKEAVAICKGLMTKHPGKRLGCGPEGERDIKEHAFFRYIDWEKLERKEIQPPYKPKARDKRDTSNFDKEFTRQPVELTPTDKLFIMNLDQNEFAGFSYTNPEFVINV

[8] = target: Proto-oncogene tyrosine-protein kinase Src (Homo sapiens, UniProt P12931); assay: Inhibition of Src
Proto-oncogene tyrosine-protein kinase Src, sequence (P12931 2-536 limits assumed): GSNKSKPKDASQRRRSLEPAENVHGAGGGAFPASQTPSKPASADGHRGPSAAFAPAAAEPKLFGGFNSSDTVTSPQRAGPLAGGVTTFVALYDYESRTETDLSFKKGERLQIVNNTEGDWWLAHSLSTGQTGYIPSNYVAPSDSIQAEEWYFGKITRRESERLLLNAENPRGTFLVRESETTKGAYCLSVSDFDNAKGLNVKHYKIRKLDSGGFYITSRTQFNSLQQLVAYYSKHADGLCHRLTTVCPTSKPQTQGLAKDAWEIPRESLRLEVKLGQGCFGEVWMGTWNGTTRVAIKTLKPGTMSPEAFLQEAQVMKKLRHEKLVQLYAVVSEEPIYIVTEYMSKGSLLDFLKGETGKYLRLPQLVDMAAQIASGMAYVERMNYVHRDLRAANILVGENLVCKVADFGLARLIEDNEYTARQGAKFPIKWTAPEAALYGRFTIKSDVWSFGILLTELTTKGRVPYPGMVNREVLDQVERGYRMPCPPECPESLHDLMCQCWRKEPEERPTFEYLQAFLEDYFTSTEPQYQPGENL

[9] = target: T3, Epidermal growth factor receptor; assay: Inhibition of EGFR
[10] = target: T2, Mitogen-activated protein kinase 8; assay: Inhibition of JNK1
[11] = target: Tyrosine-protein kinase SYK (Homo sapiens) (UniProt P43405); assay: Inhibition of Syk

Mitogen-activated protein kinase 14, sequence (Q16539 whole entry): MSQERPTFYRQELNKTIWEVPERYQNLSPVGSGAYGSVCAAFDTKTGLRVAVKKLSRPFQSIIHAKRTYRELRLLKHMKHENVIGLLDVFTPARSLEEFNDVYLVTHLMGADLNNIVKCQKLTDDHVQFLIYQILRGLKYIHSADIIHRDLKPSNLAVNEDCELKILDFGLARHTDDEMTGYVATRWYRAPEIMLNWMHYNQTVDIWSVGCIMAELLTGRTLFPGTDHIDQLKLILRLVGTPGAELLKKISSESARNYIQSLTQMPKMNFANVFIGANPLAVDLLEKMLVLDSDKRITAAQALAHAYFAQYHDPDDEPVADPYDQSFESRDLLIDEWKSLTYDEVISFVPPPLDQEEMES

With `COc1cc(Nc2nc(NCc3ccc(/C=C/C(=O)O)cc3)n3ccnc3c2C(N)=O)cc(OC)c1` the IC50 [1] was over 10 µM, the IC50 [2] was 0.047 µM and the IC50 [3] was over 10 µM. It also gave an inhibition [4] of 90%, an inhibition [5] of 89% and an IC50 [6] of over 10 µM. It also gave an IC50 [7] of over 10 µM and an IC50 [8] of over 10 µM.

In the case of `CCOC(=O)/C=C/c1ccc(CNc2nc(Nc3cc(OC)cc(OC)c3)c(C(N)=O)c3nccn23)cc1`, the IC50 [1] is reported as over 10 µM, the IC50 [9] is reported as over 10 µM and the IC50 [2] is reported as 0.088 µM. The IC50 [3] was over 12.5 µM, the IC50 [10] was over 10 µM and the IC50 [6] was over 10 µM. It also gave an IC50 [7] of over 10 µM and an IC50 [8] of over 10 µM.

In the case of `COc1cc(Nc2nc(NCc3ccccc3)n3ccnc3c2C(N)=O)cc(OC)c1`, the IC50 [2] is reported as 0.4 µM and the IC50 [3] is reported as over 25 µM.

For `CC(=O)N[C@@H](Cc1ccc(OP(=O)(O)O)cc1)C(=O)N[C@@H](CO)c1nc(Cc2ccc(C(F)(F)F)cc2)no1`, the IC50 [11] was over 500 µM.
